Test results as given in PMC12811501, “A plant-derived antimicrobial peptide with multiple mechanisms of action exhibiting antibacterial and antibiofilm activities comparable to or superior to polymyxin B” (Current Research in Microbial Sciences, 2025).
Values after ≈ are worked out from the molar mass of the structure shown. Where two headings read alike, the source gives them in different places. Residues, ends and D or L forms follow the SMILES beside them. No end group written: not given here.

What was measured:
[1] = system: Acinetobacter baumannii pre-formed biofilm; assay: microbe, parasite or virus in culture; assay type: cell-based; details: for degradation of pre-formed biofilm: A. baumannii biofilm pre-formed 24 h, 24 h of treatment, Crystal Violet OD550; for MBC: A. baumannii biofilm pre-formed 24 h in MHB
Procedure: For the biofilm eradication assay the difference was at the beginning of the experiments when bacteria were pre-cultured for 24 h or 72 h in MHB with a starting OD600 = 0.01. Then bacterial suspensions were removed from the wells followed by washing three times with 200 µl of 1/2 MHB. Subsequently fresh 1/10 MHB was added to the wells containing the respective dilutions of NCR169C17–38, meropenem or polymixin B and the treatment lasted either 3 h or 24 h. Experiments were done in three biological replicates.
To assess whether the NCR169C17–38 peptide or the tested antibiotics could eradicate pre-formed biofilms, A. baumannii was first cultured in MHB for 24 h, then treated with NCR169C17–38, meropenem or polymyxin B for either 3 h or 24 h, using the same concentration range as in the previous experiment. Both bacterial survival within the pre-formed biofilm and the amount of residual biofilm were assessed. […] In contrast, neither of the two antibiotics completely eliminated the bacteria within the tested concentration range. […] This 24 h of treatment was repeated on mature biofilm (pre-formed for 72 h) and the results were very similar (Supplementary Fig. 1.).

Acinetobacter baumannii = assay: microbe, parasite or virus in culture; assay type: cell-based; details: A. baumannii; for MBC: 24 h of treatment in MHB (method: 1/10 MHB), detected at the end of the biofilm inhibition test, read-out: MBC, Inhibition test after 24 h
Procedure: For the biofilm inhibition assay the antimicrobial activity test was done in 1/10 MHB using A. baumannii treated with the respective dilutions of NCR169C17–38, meropenem or polymixin B for 24 h. After taking the 5 μl samples at the end of the treatment and placed on LB agar to detect bacterial growth, the rest of the grown bacterial suspensions were discarded from the plate and the remaining biofilm on the walls of the plate was then washed three times with sterile water and stained using 1 % Crystal Violet (CV) for 15 min to visualize the produced biofilm. The non-adherent CV dye was then removed by washing with water three times. The plate was left for complete drying, then the biofilm-bound CV dye was dissolved in 200 µl of 30 % acetic-acid with shaking over 15 min. The absorbance was measured at OD550 using a HIDEX Plate Reader (Hidex Sense Microplate Reader with Plate Reader Software version 5064, Hidex, Finland). All measurements were repeated three times.
We examined the capacity of NCR169C17–38 to inhibit biofilm formation by Acinetobacter baumannii, a pathogen well known for its robust biofilm production and high level of antibiotic resistance. […] Additionally, at the end of the experiment we determined the quantity of the biofilm and thereby evaluated their ability to inhibit biofilm formation during culturing the bacteria in the presence of different concentrations of the agents (Fig. 1.A). We tested concentrations of NCR169C17–38 ranging from 25 μM to 0.4 μM, meropenem from 100 μM to 1.6 μM and polymyxin B from 3.1 μM to 0.05 μM.

E. coli = assay: microbe, parasite or virus in culture; details: for FBC-A: (MBC of Drug A in combination)/(MBC of Drug A alone), combination with NCR169C17–38 (Drug B), checkerboard; for FBC-A / FBC-B / FBC / Action / FBC-A (µM): concentration of Drug A for the indicated action / FBC-B (µM): concentration of Drug B for the indicated action: E. coli; for FBC-A / FBC-A (µM): concentration of Drug A for the indicated action: 3 h 37 °C; for FBC-B: (MBC of NCR169C17–38 in combination)/(MBC alone), value refers to NCR169C17–38 (Drug B) combined with the Drug A; for MBC: Escherichia coli, read-out: Drug A MBC; for FBC: FBC index = FBC-A + FBC-B, Drug A combined with NCR169C17–38; for Action: interaction of Drug A with NCR169C17–38 by FBC index; for FBC-A (µM): concentration of Drug A for the indicated action / FBC-B (µM): concentration of Drug B for the indicated action: value in brackets; for FBC-A (µM): concentration of Drug A for the indicated action: Drug A in combination with NCR169C17–38, checkerboard; for FBC-B (µM): concentration of Drug B for the indicated action: concentration of NCR169C17–38 (Drug B) combined with Drug A
Procedure: Streptomycin was tested at concentrations ranging from 25 μM to 0.4 μM, meropenem from 200 μM to 3.1 μM, and polymyxin B from 6.3 μM to 0.1 μM. NCR335N1–19 was tested in a concentration range from 3.1 μM to 0.05 μM, while NCR335C13–33 from 12.5 μM to 0.2 μM. […] The initial E. coli density in each well were adjusted to OD600 = 0.01 corresponding to ∼10^6 bacteria/ml. […] The effectiveness of combination treatments was measured using the fractional bactericidal concentration (FBC) index, which is a metric used to assess the interaction between antimicrobial agents, determining whether their combined effect is synergistic, additive, or antagonistic. First, the MBC values of polymyxin B, meropenem, streptomycin, NCR335N1–19, and NCR335C13–33 were determined in E. coli. Subsequently, their combinations with NCR169C17–38 were examined using the FBC index. FBC = FBCA + FBCB. FBCA = (MBCA in combination) / (MBCA alone); FBCB = (MBCB in combination) / (MBCB alone). Experiments were done in three biological replicates.
The use of multiple antimicrobial agents can simultaneously target different physiological pathways in microbial cells, reducing the likelihood of resistance development and increasing treatment efficacy. To explore this strategy, we assessed the combined antibacterial effects of the NCR169C17–38 peptide with several antibiotics - specifically polymyxin B, meropenem, and streptomycin - against E. coli. […] Combination treatments were then performed using the standard checkerboard titration method, with each agent co-administered with NCR169C17–38.

[2] = assay type: physicochemical; details: for solubility / visible turbidity upon peptide addition: pH 7.4

Compound	FBC-A (E. coli)	FBC-B (E. coli)	FBC (E. coli)	Action (E. coli)	FBC-A (µM): concentration of Drug A for the indicated action (E. coli) [µM]	FBC-B (µM): concentration of Drug B for the indicated action (E. coli) [µM]	also measured
C[C@@H](O)[C@H]1C(=O)N2C(C(=O)O)=C(S[C@@H]3CN[C@H](C(=O)N(C)C)C3)[C@H](C)[C@H]12 [Meropenem]	0.25	0.25	0.5	Synergism (< 0.5: synergism)	50	0.4	degradation of pre-formed biofilm [1]: successful even at sub-MBC level; MBC ([1]; Acinetobacter baumannii, 3 h treatment (method: 1/10 MHB), read-out: MBC, Eradication test after 3 h): > 100 µM; MBC ([1]; Acinetobacter baumannii, 24 h treatment (method: 1/10 MHB), read-out: MBC, Eradication test after 24 h): > 100 µM; inhibition of biofilm formation (Crystal Violet, OD550) (Acinetobacter baumannii; 24 h treatment, NCR169C17–38 25-0.4 μM, meropenem 100-1.6 μM, polymyxin B 3.1-0.05 μM): remaining effective even at lower doses; MBC (Acinetobacter baumannii; Acinetobacter baumannii): 50 µM (≈ 19.2 µg/mL); MBC (E. coli; 3 h): 200 µM
CC[C@H](C)[C@H](NC(=O)CNC(=O)[C@H](CS)NC(=O)[C@H](Cc1ccc(O)cc1)NC(=O)[C@H](CCCCN)NC(=O)[C@@H](NC(=O)[C@H](Cc1c[nH]cn1)NC(=O)CNC(=O)[C@@H](NC(=O)[C@H](CC(=O)O)NC(=O)[C@@H](N)CCC(=O)O)[C@@H](C)CC)[C@@H](C)CC)C(=O)N[C@H](C(=O)N[C@@H](CC(=O)O)C(=O)N[C@@H](CC(=O)O)C(=O)N[C@@H](CS)C(=O)N[C@@H](Cc1ccc(O)cc1)C(=O)N[C@@H](CCCCN)C(=O)N[C@@H](CO)C(=O)N[C@@H](CCCCN)C(=O)N[C@@H](CCCCN)C(=O)N1CCC[C@H]1C(=O)N[C@@H](CC(C)C)C(=O)N[C@@H](Cc1ccccc1)C(=O)N[C@@H](CCCCN)C(=O)N[C@H](C(=O)N[C@@H](Cc1c[nH]c2ccccc12)C(=O)N[C@@H](CCCCN)C(=O)N[C@@H](CS)C(=O)N[C@H](C(=O)N[C@@H](CCC(=O)O)C(=O)N[C@@H](CC(N)=O)C(=O)N[C@H](C(=O)N[C@@H](CS)C(=O)N[C@H](C(=O)N[C@@H](CC(C)C)C(=O)N[C@@H](Cc1c[nH]c2ccccc12)C(=O)N[C@@H](Cc1ccc(O)cc1)C(=O)N[C@@H](CCCCN)C(N)=O)C(C)C)C(C)C)C(C)C)[C@@H](C)CC)C(C)C [NCR169] (H-EDIGHIKYCGIVDDCYKSKKPLFKIWKCVENVCVLWYK-NH2)	–	–	–	–	–	–	solubility / visible turbidity ([2]; pH 5.8): eliminating visible turbidity; solubility / visible turbidity upon peptide addition [2]: visible white turbidity
CC[C@H](C)[C@H](NC(=O)[C@@H]1CCCN1C(=O)[C@@H](NC(=O)[C@H](CS)NC(=O)[C@H](Cc1ccc(O)cc1)NC(=O)[C@H](CO)NC(=O)[C@H](CCCCN)NC(=O)[C@H](CCCNC(=N)N)NC(=O)[C@H](CS)NC(=O)[C@H](CCCNC(=N)N)NC(=O)[C@@H](NC(=O)[C@H](CC(N)=O)NC(=O)[C@H](C)NC(=O)[C@H](CCCNC(=N)N)NC(=O)[C@H](CCCNC(=N)N)NC(=O)[C@H](CC(C)C)NC(=O)[C@H](CCCCN)NC(=O)[C@@H]1CCCN1C(=O)[C@H](CS)NC(=O)[C@H](CC(=O)O)NC(=O)[C@@H](N)CCCCN)C(C)C)C(C)C)C(N)=O [NCR335C13–33] (H-KDCPKLRRANVRCRKSYCVPI-NH2; N-terminus and C-terminus assumed)	0.5	0.03	0.5	Synergism (< 0.5: synergism)	6.25	0.048	Drug A MBC (E. coli; 3 h): 12.5 µM
[H]/N=C(/N)N[C@H]1[C@H](O)[C@@H](O)[C@H](O[C@@H]2O[C@@H](C)[C@](O)(C=O)[C@H]2O[C@@H]2O[C@@H](CO)[C@H](O)[C@@H](O)[C@@H]2NC)[C@@H](N/C(N)=N\[H])[C@@H]1O [Streptomycin]	0.5	0.5	1	Additive (0.5 < FBC < 1.0: additive)	–	0.8	MBC (E. coli; 3 h): 3.12 µM
EDIGHIKYSGIVDDSYKSKKPLFKIWKSVENVSVLWYK-NH2 [NCR169-C9,15,28,33/S]	–	–	–	–	–	–	solubility / visible turbidity upon peptide addition [2]: no visible turbidity
Polymyxin B	0.125	0.25	0.38	Synergism (< 0.5: synergism)	0.1	0.4	degradation of pre-formed biofilm [1]: required at least their MBC or higher concentrations; MBC ([1]; 3 h treatment (method: 1/10 MHB), read-out: MBC, Eradication test after 3 h): >3.2 µM; MBC ([1]; 24 h treatment (method: 1/10 MHB), read-out: MBC, Eradication test after 24 h): >3.2 µM; eradication of pre-formed biofilms at sub-MBC concentration ([1]; A. baumannii, as stated in the abstract): not observed; MBC (Acinetobacter baumannii): 0.8 µM; Drug A MBC (E. coli; Drug A alone, E. coli ~10^6 bacteria/ml, MHB/PPB mixture, 3 h at 37 °C, plated on LB agar, three biological replicates): 0.8 µM
RLNTTFRPLNFKMLRFWGQ-NH2 [NCR335N1–19]	0.5	0.01	0.5	Synergism (< 0.5: synergism)	1.6	–	Drug A MBC (E. coli; 3 h): 3.125 µM
